Test results published in patent publication EP4792818A1, “COMPOUND SUITABLE FOR EXTERNAL USE, AND PHARMACEUTICAL COMPOSITION” (EnKang Pharmaceuticals (Guangzhou), Ltd., priority 2023, dated 2025).
Like-named read-outs stand apart in the source and are kept apart here.

Columns and labels:
[1] = tested on: TE.354.T cells (human cutaneous basal cell carcinoma)
Protocol: The experimental procedures were as follows: The cells were subcultured in a complete medium containing 10% FBS in an incubator at 37 °C with 5% CO2 and saturated humidity. The cell density was adjusted to (3-5) × 10^4 cells/mL using a complete medium containing 10% FBS. The cell suspension was added to the wells of a 96-well culture plate at 100 µL/well, and the plate was incubated in an incubator at 37 °C with 5% CO2 and saturated humidity overnight (for about 16-24 hrs). Various dose groups of the test substance and a solvent control group were set. On the next day, the original culture medium was discarded. Subsequently, 20% FBS-containing complete medium was added at 100 µL/well, and the test substance or solvent in FBS-free medium was then added at 100 µL/well, resulting in a final FBS concentration of 10%. Meanwhile, a negative control group was set: each well received 100 µL of 20% FBS-containing complete medium + 100 µL of incomplete medium containing cells, resulting in a final FBS concentration of 10%. A zero adjustment group (background) was also set: 200 µL of the culture medium alone (100 µL of 20% FBS-containing complete medium + 100 µL of incomplete medium), without drugs and cells. For each concentration group, four replicate wells were set. […]

[2] = topical gel; for plasma drug concentrations above the LLOQ: 0.008-0.06 mg/cm^2, LLOQ 0.02 ng/mL
[3] = for Labeled amount (%) / Related substances (%) Impurity A / Related substances (%) Impurity B / Related substances (%) Impurity C / Related substances (%) Impurity D / Related substances (%) Impurity E / Related substances (%) Impurity F / Related substances (%) RRT0.73 / Related substances (%) RRT1.10 / Related substances (%) RRT2.18 / Related substances (%) Total impurities: mixed with CMC-Na 1:5
[4] = tested on: SCL-1 cells; conditions: SCL-1 tumor-bearing nude mice, 21 days
Protocol: (§1) Quarantine-qualified male BALB/c-nu nude mice weighing 13.4-20.5 g were each inoculated with 0.2 mL of SCL-1 cells in logarithmic growth phase at 3 x 10^6 cells/mL (with Matrigel and cell suspension mixed in a ratio of 1:2) in the right axilla. […] The drug was kept in contact with the skin for 4 hrs per administration, and the treatment was given to each group for three consecutive weeks. During the treatment period, the long diameter (a) and short diameter (b) of the tumors were measured using a vernier caliper every 3 days. Then, the tumor volume (TV), relative tumor volume (RTV), and relative tumor proliferation rate (T/C, %) were calculated. After the final administration, the tumor tissues were dissected out and weighed to calculate the tumor growth inhibition rates.

[5] = tested on: SCL-1 cells
Protocol: (§2) The experimental procedures were as follows: The cells were subcultured in a complete medium containing 10% FBS in an incubator at 37 °C with 5% CO2 and saturated humidity. The cell density was adjusted to (3-5) × 10^4 cells/mL using a complete medium containing 10% FBS. The cell suspension was added to the wells of a 96-well culture plate at 100 µL/well, and the plate was incubated in an incubator at 37 °C with 5% CO2 and saturated humidity overnight (for about 16-24 hrs). Various dose groups of the test substance and a solvent control group were set. On the next day, the original culture medium was discarded. Subsequently, 20% FBS-containing complete medium was added at 100 µL/well, and the test substance or solvent in FBS-free medium was then added at 100 µL/well, resulting in a final FBS concentration of 10%. Meanwhile, a negative control group was set: each well received 100 µL of 20% FBS-containing complete medium + 100 µL of incomplete medium containing cells, resulting in a final FBS concentration of 10%. A zero adjustment group (background) was also set: 200 µL of the culture medium alone (100 µL of 20% FBS-containing complete medium + 100 µL of incomplete medium), without drugs and cells. For each concentration group, four replicate wells were set.
(§3) After incubation for 48 hrs under the experimental conditions, the supernatant was discarded, and 110 µL of CCK-8 working solution (100 µL of 10% FBS-containing complete medium and 10 µL of CCK-8 solution) were added to each well. The cells were further incubated for 4 hrs, and the optical density value at a wavelength of 450 nm (A450) was then measured for each well using a microplate reader. The average value for the wells of each treatment group (T) was compared with the average value for the negative control wells (C). The percent inhibition rate of each concentration group was calculated using the following formula: [Inhibition rate = (1 - T/C) × 100%], and the half-maximal inhibitory concentration (IC50) was calculated.

[6] = tested on: A431 cells
Protocol: as §2, §3

[7] = tested on: COLO-16 cells
Protocol: as §2, §3

[8] = 20 °C
[9] = tested on: COLO-16 cells; conditions: COLO-16 tumor-bearing nude mice, 21 days
Protocol: as §1, with “weighing 13.7-21.1” for “weighing 13.4-20.5”, “of COLO-16” for “of SCL-1”, “at 6.7” for “at 3”, “cells/mL” for “cells/mL (with Matrigel and cell suspension mixed in a ratio of 1:2)”

[10] = tested on: human liver cancer HepG2 cells; conditions: documented in CN 104736157 A; cited from earlier work
[11] = High humidity for 10 days (RH 90%±5%)
[12] = High temperature for 10 days (60 °C±2 °C)

## CO[C@H]1[C@H](O)[C@H](O[C@H]2CC[C@@]3(C)[C@H](CC[C@@H]4[C@@H]3CC[C@]3(C)[C@@H](C5=CC(=O)OC5)CC[C@]43O)C2)O[C@@H](C)[C@@H]1O [17β-neriifolin]
[1]
  growth inhibitory effects: strong growth inhibitory effects
[2]; four Australian subjects
  plasma drug concentrations above the LLOQ: 0.021 to 0.101 ng/mL
[2]; seven Chinese subjects
  plasma drug concentrations above the LLOQ: 0.022 to 0.106 ng/mL
[2]; 0.008-0.06 mg/cm^2 dose range
  dose dependence of systemic exposure: No dose-dependent increase
[3]; combined with sodium carboxymethyl cellulose 1:5, 10 days
  impact of high temperature, high humidity, and illumination on the related substances and drug content: no impact
[3]; mass ratio 1:5, 10 days, high temperature, high humidity, illumination
  stability of the combination with sodium carboxymethyl cellulose compared with the combination with Carbomer: significantly superior
[3]; 0 days
  Labeled amount (%): 99.56%
  Related substances (%) Impurity A: 0.17%
  Related substances (%) Impurity B: 0.36%
  Related substances (%) Impurity C: 0.25%
  Related substances (%) Impurity D: 0.13%
  Related substances (%) Impurity E: 0.15%
  Related substances (%) Impurity F: 0.14%
  Related substances (%) RRT0.73: 0.05%
  Related substances (%) RRT1.10: 0.04%
  Related substances (%) RRT2.18: 0.03%
  Related substances (%) Total impurities: 1.32%
[3]; [11]
  Labeled amount (%): 99.42%
  Related substances (%) Impurity A: 0.17%
  Related substances (%) Impurity B: 0.36%
  Related substances (%) Impurity C: 0.25%
  Related substances (%) Impurity D: 0.13%
  Related substances (%) Impurity E: 0.15%
  Related substances (%) Impurity F: 0.14%
  Related substances (%) RRT0.73: 0.05%
  Related substances (%) RRT1.10: 0.04%
  Related substances (%) RRT2.18: 0.03%
  Related substances (%) Total impurities: 1.32%
[3]; [12]
  Labeled amount (%): 100.95%
  Related substances (%) Impurity A: 0.17%
  Related substances (%) Impurity B: 0.36%
  Related substances (%) Impurity C: 0.25%
  Related substances (%) Impurity D: 0.13%
  Related substances (%) Impurity E: 0.15%
  Related substances (%) Impurity F: 0.14%
  Related substances (%) RRT0.73: 0.05%
  Related substances (%) RRT1.10: 0.04%
  Related substances (%) RRT2.18: 0.03%
  Related substances (%) Total impurities: 1.32%
[3]; Strong light for 10 days
  Labeled amount (%): 99.96%
  Related substances (%) Impurity A: 0.17%
  Related substances (%) Impurity B: 0.36%
  Related substances (%) Impurity C: 0.25%
  Related substances (%) Impurity D: 0.13%
  Related substances (%) Impurity E: 0.15%
  Related substances (%) Impurity F: 0.14%
  Related substances (%) RRT0.73: 0.05%
  Related substances (%) RRT1.10: 0.04%
  Related substances (%) RRT2.18: 0.03%
  Related substances (%) Total impurities: 1.32%
[4]
  anti-tumor effect compared with Imiquimod cream (50 mg/g): significantly superior to that of Imiquimod cream
[5]
  growth inhibitory effects: strong growth inhibitory effects
[6]
  growth inhibitory effects: strong growth inhibitory effects
[7]
  growth inhibitory effects: strong growth inhibitory effects
[8]; Ethanol concentration 20 %, sample concentration 8 mg/g
  Dissolution behavior: dissolved
[8]; Ethanol concentration 20 %, sample concentration 8 mg/g, listed as 17β-Neriifolin
  Dissolution behavior: Dissolved
[8]; Ethanol concentration 45 %, sample concentration 20 mg/g
  Dissolution behavior: dissolved
[8]; Ethanol concentration 45 %, sample concentration 20 mg/g, listed as 17β-Neriifolin
  Dissolution behavior: Dissolved
[8]; Ethanol concentration 50 %, sample concentration 24 mg/g
  Dissolution behavior: Dissolved
[8]; Ethanol concentration 66 %, sample concentration 32 mg/g
  Dissolution behavior: Dissolved
[8]; Ethanol concentration 75 %, sample concentration 40 mg/g
  Dissolution behavior: Dissolved
[8]; Ethanol concentration 100 %, sample concentration 50 mg/g
  Dissolution behavior: Dissolved
[9]
  anti-tumor effect compared with Imiquimod cream (50 mg/g): significantly superior to that of Imiquimod cream
[10]
  cell cycle arrest and apoptosis: induce cell cycle arrest and apoptosis
